Data reported in patent publication US6703405B2, “Substituted 4-phenyltetrahydroisoquinolinium salts, process for their preparation, their use as a medicament, and medicament containing them” (Aventis Pharma Deutschland GmbH, priority 2001, dated 2004).
Structures can show the parent of a compound that is named as a salt.

biological target: T1, rNHE3 (Rattus norvegicus, UniProt P26433); assay: recovery of intracellular pH (pHi) after acidification, BCECF fluorescence; format: cell-based; settings: pH recovery recorded for three minutes with NHE3; bicarbonate-free conditions
T1 construct: expressed in transfected cells
T1 sequence (P26433 29-831): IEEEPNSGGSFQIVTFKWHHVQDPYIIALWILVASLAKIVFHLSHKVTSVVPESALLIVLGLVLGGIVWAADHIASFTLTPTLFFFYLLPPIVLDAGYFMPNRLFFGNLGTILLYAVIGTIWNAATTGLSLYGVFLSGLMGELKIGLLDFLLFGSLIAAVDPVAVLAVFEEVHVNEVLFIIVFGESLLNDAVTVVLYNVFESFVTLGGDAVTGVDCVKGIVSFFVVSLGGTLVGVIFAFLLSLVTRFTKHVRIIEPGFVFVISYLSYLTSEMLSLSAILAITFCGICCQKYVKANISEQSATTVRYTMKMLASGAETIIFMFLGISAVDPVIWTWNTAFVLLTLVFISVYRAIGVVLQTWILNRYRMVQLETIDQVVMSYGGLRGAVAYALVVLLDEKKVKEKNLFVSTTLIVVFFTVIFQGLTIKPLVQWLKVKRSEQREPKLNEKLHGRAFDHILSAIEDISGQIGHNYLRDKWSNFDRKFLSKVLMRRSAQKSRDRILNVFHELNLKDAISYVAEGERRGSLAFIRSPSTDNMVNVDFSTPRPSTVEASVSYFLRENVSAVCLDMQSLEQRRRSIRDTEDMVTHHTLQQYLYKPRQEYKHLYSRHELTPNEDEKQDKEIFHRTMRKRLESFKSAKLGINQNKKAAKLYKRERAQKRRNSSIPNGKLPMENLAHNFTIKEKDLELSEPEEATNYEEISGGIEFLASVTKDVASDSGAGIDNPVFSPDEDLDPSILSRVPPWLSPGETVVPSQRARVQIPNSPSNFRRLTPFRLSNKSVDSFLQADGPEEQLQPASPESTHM
Protocol: In this test, the recovery in the intracellular pH (pHi) after an acidification is ascertained, which is initiated if the NHE is capable of functioning, even under bicarbonate-free conditions. For this purpose, the pHi was determined using the pH-sensitive fluorescent dye BCECF (Calbiochem, the precursor BCECF-AM is employed). The cells were initially loaded with BCECF. The BCECF fluorescence was determined in a “Ratio Fluorescence Spectrometer” (Photon Technology International, South Brunswick, N.J., USA) at excitation wavelengths of 505 and 440 nm and an emission wavelength of 535 nm and converted into the pHi using calibration curves. The cells were incubated in NH4Cl buffer (pH 7.4) (NH4Cl buffer: 115 mM NaCl, 20 mM NH4Cl, 5 mM KCl, 1 mM CaCl2, 1 mM MgSO4, 20 mM Hepes, 5 mM glucose, 1 mg/ml BSA; a pH of 7.4 was adjusted with 1 M NaOH) even during the BCECF loading. The intracellular acidification was induced by adding 975 μl of an NH4Cl-free buffer (see below) to 25 μl aliquots of the cells incubated in NH4Cl buffer. The subsequent rate of pH recovery was recorded for two minutes with NHE1, five minutes with NHE2 and three minutes with NHE3. To calculate the inhibitory potency of the tested substances, the cells were initially investigated in buffers with which a complete or absolutely no pH recovery took place. For complete pH recovery (100%), the cells were incubated in Na^+-containing buffer (133.8 mM NaCl, 4.7 mM KCl, 1.25 mM CaCl2, 1.25 mM MgCl2, 0.97 mM Na2HPO4, 0.23 mM NaH2PO4, 5 mM Hepes, 5 mM glucose, a pH of 7.0 is adjusted with 1 M NaOH). To determine the 0% value, the cells were incubated in an Na^+-free buffer (133.8 mM choline chloride, 4.7 mM KCl, 1.25 mM CaCl2, 1.25 mM MgCl2, 0.97 mM K2HPO4, 0.23 mM KH2PO4, 5 mM Hepes, 5 mM glucose, a pH of 7.0 is adjusted with 1 M NaOH). The substances to be tested were made up in the Na^+-containing buffer. The recovery of the intracellular pH at each test concentration of a substance was expressed as a percentage of the maximum recovery. The IC50 value for the particular substance for the individual NHE subtypes was calculated from the pH recovery percentages using the Sigma-Plot program.

Row | Structure (SMILES) | IC50 [µM]
1 | C[N+]1(C)Cc2c(Cl)cc(Cl)cc2C(c2ccccc2)C1 (centres unmarked) [Example 1, 6,8-Dichloro-2,2-dimethyl-4-phenyl-1,2,3,4-tetrahydroisoquinolinium, trifluoroacetate] | 0.23
2 | C[N+]1(C)Cc2c(Cl)cc(Cl)cc2C(c2ccc(S(N)(=O)=O)cc2)C1 (centres unmarked) [Example 2, 6,8-Dichloro-2,2-dimethyl-4-(4-sulfamoylphenyl)-1,2,3,4-tetrahydroisoquinolinium, Trifluoroacetate] | 0.9
3 | C[N+]1(C)Cc2c(Cl)cc(Cl)cc2C(c2ccc(N)cc2)C1 (centres unmarked) [Example 4, 4-(4-Aminophenyl)-6,8-dichloro-2,2-dimethyl-1,2,3,4-tetrahydroisoquinolinium chloride, hydrochloride] | 0.03

Other lines, results leading:

Row | IC50 [µM] | Structure (SMILES)
4 | 0.43 | CC(=O)Nc1ccc(C2C[N+](C)(C)Cc3c(Cl)cc(Cl)cc32)cc1 (single isomer, unassigned; (+)) [Example 3c, (+)-4-(4-Acetylaminophenyl)-6,8-dichloro-2,2-dimethyl-1,2,3,4-tetrahydroisoquinolinium chloride]
5 | 0.67 | CC(=O)Nc1ccc(C2C[N+](C)(C)Cc3c(Cl)cc(Cl)cc32)cc1 (centres unmarked) [Example 3a, 4-(4-Acetylaminophenyl)-6,8-dichloro-2,2-dimethyl-1,2,3,4-tetrahydroisoquinolinium iodide]
